Measurements published in PubChem BioAssay AID1963986 (Molecular Pharmacology Branch, DTP, NCI, 2024).

System: 171881-019-R-J1-PDC tumor spheroid viability
Experiment: Anticancer human tumor 171881-019-R-J1-PDC patient-derived invasive breast carcinoma cell line growth inhibition [PI3K]
Conditions: spheroids with HUVEC and MSC; for IC50: curve of first compound; for viability, T/C: stronger effect = lower value; active means viability on the fitted dose curve at most 10% of control; inactive means the rest
Summary of the method: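 Stroma-containing spheroids: tumor line, pooled-donor HUVEC, hMSC. Treatments: targeted agents with PI3K inhibitors. Dosing: clinically relevant, half-log spacing, 10 microM ceiling without known Cmax. Read-out: cell viability.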

[1] = second compound 0.00316 µM, first compound 0.0316 µM
[2] = second compound 0.00316 µM, first compound 0.1 µM
[3] = second compound 0.00316 µM, first compound 0.316 µM
[4] = second compound 0.00316 µM, first compound 1 µM
[5] = second compound 0.00316 µM, first compound 3.16 µM
[6] = second compound 0.00316 µM, first compound 10 µM
[7] = second compound 0.01 µM, first compound 0.0316 µM
[8] = second compound 0.01 µM, first compound 0.1 µM
[9] = second compound 0.01 µM, first compound 0.316 µM
[10] = second compound 0.01 µM, first compound 1 µM
[11] = second compound 0.01 µM, first compound 3.16 µM
[12] = second compound 0.01 µM, first compound 10 µM
[13] = second compound 0.0316 µM, first compound 0.0316 µM
[14] = second compound 0.0316 µM, first compound 0.1 µM
[15] = second compound 0.0316 µM, first compound 0.316 µM
[16] = second compound 0.0316 µM, first compound 1 µM
[17] = second compound 0.0316 µM, first compound 3.16 µM
[18] = second compound 0.0316 µM, first compound 10 µM
[19] = second compound 0.1 µM, first compound 0.0316 µM
[20] = second compound 0.1 µM, first compound 0.1 µM
[21] = second compound 0.1 µM, first compound 0.316 µM
[22] = second compound 0.1 µM, first compound 1 µM
[23] = second compound 0.1 µM, first compound 3.16 µM
[24] = second compound 0.1 µM, first compound 10 µM
[25] = second compound 0.316 µM, first compound 0.0316 µM
[26] = second compound 0.316 µM, first compound 0.1 µM
[27] = second compound 0.316 µM, first compound 0.316 µM
[28] = second compound 0.316 µM, first compound 1 µM
[29] = second compound 0.316 µM, first compound 3.16 µM
[30] = second compound 0.316 µM, first compound 10 µM
[31] = second compound 1 µM, first compound 0.0316 µM
[32] = second compound 1 µM, first compound 0.1 µM
[33] = second compound 1 µM, first compound 0.316 µM
[34] = second compound 1 µM, first compound 1 µM
[35] = second compound 1 µM, first compound 3.16 µM
[36] = second compound 1 µM, first compound 10 µM
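Further: spheroids exposed to compound for 7 days before viability read.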
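Wherever viability, T/C is given: 100% = DMSO vehicle-treated spheroids.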

C#Cc1c(F)ccc2cc(O)cc(-c3ncc4c(N5CC6CCC(C5)N6)nc(OCC56CCCN5CC(F)C6)nc4c3F)c12 (centres undefined) + COc1c(OCCCN2CCOCC2)ccc2c3n(c(=NC(=O)c4cnc(N)nc4)nc12)CCN3
< 31.6 nM: IC50 (second compound 0.01 µM) | IC50 (second compound 0.0316 µM) | IC50 (second compound 0.1 µM) | IC50 (second compound 0.316 µM) | IC50 (second compound 1 µM)
active: viability, T/C [12] 9.69% | viability, T/C [16] 6.62% | viability, T/C [17] 5.52% | viability, T/C [18] 4.3% | viability, T/C [19] 6.23% | viability, T/C [20] 4.84% | viability, T/C [21] 3.8% | viability, T/C [22] 3.03% | viability, T/C [23] 2.87% | viability, T/C [24] 1.74% | viability, T/C [25] 1.68% | viability, T/C [26] 1.75% | viability, T/C [27] 1.34% | viability, T/C [28] 1.08% | viability, T/C [29] 0.99% | viability, T/C [30] 0.17% | viability, T/C [31] 0.8% | viability, T/C [32] 0.83% | viability, T/C [33] 0.78% | viability, T/C [34] 0.83% | viability, T/C [35] 0.68% | viability, T/C [36] 0.29%
61.3 nM: IC50 (second compound 0.00316 µM)
inactive: viability, T/C [1] 53.6% | viability, T/C [2] 48.2% | viability, T/C [3] 30% | viability, T/C [4] 20.7% | viability, T/C [5] 15.8% | viability, T/C [6] 12.8% | viability, T/C [7] 38.2% | viability, T/C [8] 31.8% | viability, T/C [9] 20.4% | viability, T/C [10] 15.1% | viability, T/C [11] 10.3% | viability, T/C [13] 18.9% | viability, T/C [14] 14.8% | viability, T/C [15] 10%

C=CC(=O)N1CCN(c2nc(=O)n(-c3c(C)ccnc3C(C)C)c3nc(-c4c(O)cccc4F)c(F)cc23)C(C)C1 (centres undefined) + COc1c(OCCCN2CCOCC2)ccc2c3n(c(=NC(=O)c4cnc(N)nc4)nc12)CCN3
inactive: viability, T/C [1] 63.5% | viability, T/C [2] 70% | viability, T/C [3] 50% | viability, T/C [4] 66.9% | viability, T/C [5] 60.3% | viability, T/C [6] 36.9% | viability, T/C [7] 45.4% | viability, T/C [8] 49.9% | viability, T/C [9] 49% | viability, T/C [10] 51.3% | viability, T/C [11] 43.8% | viability, T/C [12] 28.4% | viability, T/C [13] 24.2% | viability, T/C [14] 25.5% | viability, T/C [15] 24.3% | viability, T/C [16] 26.2% | viability, T/C [17] 25.6% | viability, T/C [18] 13.3%
< 31.6 nM: IC50 (second compound 0.01 µM) | IC50 (second compound 0.0316 µM) | IC50 (second compound 0.1 µM) | IC50 (second compound 0.316 µM) | IC50 (second compound 1 µM)
active: viability, T/C [19] 7.99% | viability, T/C [20] 8.18% | viability, T/C [21] 9.55% | viability, T/C [22] 9.16% | viability, T/C [23] 8.78% | viability, T/C [24] 4.72% | viability, T/C [25] 1.86% | viability, T/C [26] 1.72% | viability, T/C [27] 2.68% | viability, T/C [28] 2.25% | viability, T/C [29] 2.28% | viability, T/C [30] 2.01% | viability, T/C [31] 0.96% | viability, T/C [32] 0.93% | viability, T/C [33] 1.05% | viability, T/C [34] 1.41% | viability, T/C [35] 1.76% | viability, T/C [36] 3.63%
5310 nM: IC50 (second compound 0.00316 µM)
